According to patent publication US5416222A, “3-pyrrolidine methanamines wherein the alpha-carbon is substituted by 1 or 2 lower alkyl groups which are intermediates for pyridone-carboxylic acid derivatives” (Daiichi Seiyaku Co., Ltd., priority 1985, dated 1995):
Converted amounts (≈) assume the structure as drawn.

Legend:
acute toxicity to mouse = type: in vivo; settings: mouse, in vivo, iv; 200 mg/kg
Experimental: (§1) The water-solubility and acute toxicity of the compounds of the present invention and the comparative compounds, were measured. The results obtained are shown hereunder. The water-solubility was measured by the following method.
*200 mg/kg; i.v, (deaths/total number) As is obvious from the above

[1] = system: Gram-negative microorganisms; settings: in words, prior art discussion; cited from earlier work
S. epidermidis, 56500 = assay: antimicrobial activity, MIC, standard process of Japan Society of Chemotherapy; type: cell-based; settings: for minimum growth inhibitory concentration (MIC): S. epidermidis
Outline: (§2)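 MIC (μg/ml) = lowest concentration inhibiting growth; method per Japan Society of Chemotherapy standard.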

Ser. marcescens, 13001 = assay: as above; type: cell-based; settings: for minimum growth inhibitory concentration (MIC): Ser. marcescens
Outline: as §2

[2] = system: Str. faecalis, ATCC 19433; assay: as above; type: cell-based; settings: for minimum growth inhibitory concentration (MIC): Str. faecalis
Outline: as §2

S. aureus, 209P = assay: as above; type: cell-based
Outline: as §2

Str. pyogenes, G-36 = assay: as above; type: cell-based; settings: for minimum growth inhibitory concentration (MIC): Str. pyogenes
Outline: as §2

Sh. flexneri, 2a5503 = assay: as above; type: cell-based
Outline: as §2

Ps. maltophilia, IID1275 = assay: as above; type: cell-based; settings: for minimum growth inhibitory concentration (MIC): Ps. maltophilia
Outline: as §2

Ps. cepacia, IID1340 = assay: as above; type: cell-based; settings: for minimum growth inhibitory concentration (MIC): Ps. cepacia
Outline: as §2

Pr. vulgaris, 3167 = assay: as above; type: cell-based; settings: for minimum growth inhibitory concentration (MIC): Pr. vulgaris
Outline: as §2

Ps. aeruginosa, 2128 = assay: as above; type: cell-based; settings: for minimum growth inhibitory concentration (MIC): Ps. aeruginosa
Outline: as §2

Ps. aeruginosa, 2063 = assay: as above; type: cell-based; settings: for minimum growth inhibitory concentration (MIC): Ps. aeruginosa
Outline: as §2

E. coli, NIHJ = assay: as above; type: cell-based
Outline: as §2

Pr. mirabilis, IF03849 = assay: as above; type: cell-based; settings: for minimum growth inhibitory concentration (MIC): Pr. mirabilis
Outline: as §2

[3] = system: Gram-positive microorganisms; settings: in words, prior art discussion; cited from earlier work
physchem = type: physicochemical; settings: distilled water, room temperature (23° to 26° C.), 30 minutes agitation; read-out: Water solubility
Experimental: as §1
(i) Preparation of standard solution
About 400 μg of the sample to be measured was accurately weighed (the weight was defined as W μg), and 0.1N NaOH solution was added thereto to bring the whole volume to 50 ml. The UV absorbance of a given amount of the solution was measured and the measured absorbance was defined as A1.
(ii) Preparation of sample to be measured
Distilled water was added to the sample to be measured (fine powder) in such amount that the sample was not completely dissolved but suspended, and then the suspension was vigorously agitated at room temperature (between 23° and 26° C.) for 30 minutes. Insoluble matter of the sample was removed therefrom by filtration, after which 3 ml sample of the filtrate (satulated aqueous solution of the sample) was taken. 3 ml of 0.2N NaOH solution was added to the filtrate sample to bring the total volume to 6 ml (i.e. the filtrate was diluted to 50% concentration.) To 1 ml of the resulting solution, 0.1N NaOH solution was further added to bring the total volume to 25 ml […]. In this connection, degree of dilution was occasionally changed, depending on degree of UV absorbance. The UV absorbance of the given amount of the solution was measured and the resulting absorbance was defined to as A2. Where the number of dilution is N, water-solubility (s) is obtained from the following equation: [formula]

[4] = in words, prior art discussion; cited from earlier work
[5] = system: Gram-positive microorganisms; assay: antimicrobial activity against Gram-positive microorganisms (in words); type: cell-based
Experimental: (§3) The antimicrobial activities of the compounds of the present invention were determined according to a standard process designated by the Japan Society of Chemotherapy and the minimum growth inhibitory concentrations (MIC) (μg/ml) the compounds were determined.

[6] = system: Gram-negative microorganisms; assay: antimicrobial activity against Gram-negative microorganisms (in words); type: cell-based
Experimental: as §3

| SMILES | minimum growth inhibitory concentration (MIC) (S. epidermidis, 56500) [mg/L] | minimum growth inhibitory concentration (MIC) (Ser. marcescens, 13001) [mg/L] | minimum growth inhibitory concentration (MIC) [2] [mg/L] | minimum growth inhibitory concentration (MIC) (S. aureus, 209P) [mg/L] | minimum growth inhibitory concentration (MIC) (Str. pyogenes, G-36) [mg/L] | minimum growth inhibitory concentration (MIC) (Sh. flexneri, 2a5503) [mg/L] | minimum growth inhibitory concentration (MIC) (Ps. maltophilia, IID1275) [mg/L] | minimum growth inhibitory concentration (MIC) (Ps. cepacia, IID1340) [mg/L] | minimum growth inhibitory concentration (MIC) (Pr. vulgaris, 3167) [mg/L] | minimum growth inhibitory concentration (MIC) (Ps. aeruginosa, 2128) [mg/L] | minimum growth inhibitory concentration (MIC) (Ps. aeruginosa, 2063) [mg/L] | minimum growth inhibitory concentration (MIC) (E. coli, NIHJ) [mg/L] | minimum growth inhibitory concentration (MIC) (Pr. mirabilis, IF03849) [mg/L] | anti-microbial activity against Gram-positive microorganisms [5] | anti-microbial activity against Gram-negative microorganisms [6] | also measured |
| --- | --- | --- | --- | --- | --- | --- | --- | --- | --- | --- | --- | --- | --- | --- | --- | --- |
| CCNCC1CCN(c2c(F)cc3c(=O)c(C(=O)O)cn(CC)c3c2F)C1 (stereo not drawn) [Compound C, 1-Ethyl-7-[3-(ethylamino)methyl]-1-pyrolidinyl-6,8-difluoro-1,4-dihydro-4-oxo-3-quinolinecarboxylic acid, reference compound] | – | – | – | – | – | – | – | – | – | – | – | – | – | – | – | mortality (acute toxicity to mouse): 50%; antimicrobial activity against Gram-negative microorganisms (prior art compounds) [1]: a little weak; MIC (S. epidermidis, 56500; Staphylococcus epidermidis, 56500, S. epidermidis, read-out: minimum growth inhibitory concentration (MIC)): 0.39 mg/L (≈ 1.03 µM); MIC (Ser. marcescens, 13001; Serratia marcescens, 13001, Ser. marcescens, read-out: minimum growth inhibitory concentration (MIC)): 0.2 mg/L (≈ 0.527 µM); MIC ([2]; Enterococcus faecalis, ATCC19433, Str. faecalis, read-out: minimum growth inhibitory concentration (MIC)): 0.39 mg/L (≈ 1.03 µM); MIC (S. aureus, 209P; Staphylococcus aureus, read-out: minimum growth inhibitory concentration (MIC)): 0.1 mg/L (≈ 0.264 µM); MIC (Str. pyogenes, G-36; Streptococcus pyogenes, G36, Str. pyogenes, read-out: minimum growth inhibitory concentration (MIC)): 0.78 mg/L (≈ 2.06 µM); MIC (Sh. flexneri, 2a5503; Shigella flexneri, read-out: minimum growth inhibitory concentration (MIC)): ≤ 0.05 mg/L; MIC (Ps. maltophilia, IID1275; Stenotrophomonas maltophilia, IID1275, Ps. maltophilia, read-out: minimum growth inhibitory concentration (MIC)): 0.78 mg/L (≈ 2.06 µM); MIC (Ps. cepacia, IID1340; Burkholderia cepacia, IID1340, Ps. cepacia, read-out: minimum growth inhibitory concentration (MIC)): 1.56 mg/L (≈ 4.11 µM); MIC (Pr. vulgaris, 3167; Proteus vulgaris, 3167, Pr. vulgaris, read-out: minimum growth inhibitory concentration (MIC)): 0.2 mg/L (≈ 0.527 µM); MIC (Ps. aeruginosa, 2128; Pseudomonas aeruginosa, 2128, Ps. aeruginosa, read-out: minimum growth inhibitory concentration (MIC)): 0.39 mg/L (≈ 1.03 µM); MIC (Ps. aeruginosa, 2063; Pseudomonas aeruginosa, 2063, Ps. aeruginosa, read-out: minimum growth inhibitory concentration (MIC)): 0.78 mg/L (≈ 2.06 µM); MIC (E. coli, NIHJ; Escherichia coli, read-out: minimum growth inhibitory concentration (MIC)): ≤ 0.05 mg/L; MIC (Pr. mirabilis, IF03849; Proteus mirabilis, IF03849, Pr. mirabilis, read-out: minimum growth inhibitory concentration (MIC)): 0.39 mg/L (≈ 1.03 µM); antimicrobial activity against Gram-positive microorganisms (prior art compounds) [3]: strong antimicrobial activity; solubility at 0.5 h (physchem): 0.4 mg/mL (≈ 1050 µM); water-solubility (prior art compounds) [4]: good water-solubility |
| CC(N)C1CCN(c2c(F)cc3c(=O)c(C(=O)O)cn(C4CC4)c3c2F)C1 (single isomer, unassigned) [Example 2, 7-[3-(1-Aminoethyl)-1-pyrrolidinyl]-1-cyclopropyl-6,8-difluoro-1,4-dihydro-4-oxoquinoline-3-carboxylic acid] | ≤ 0.05 | ≤ 0.05 | ≤ 0.05 | ≤ 0.05 | ≤ 0.05 | ≤ 0.05 | 0.10 | 0.39 | ≤ 0.05 | ≤ 0.05 | 0.20 | ≤ 0.05 | ≤ 0.05 | extremely strong anti-microbial activity | extremely strong anti-microbial activity | – |
| CCn1cc(C(=O)O)c(=O)c2cc(F)c(N3CCC(C(C)N)C3)c(F)c21 (single isomer, unassigned) [Example 4, 7-[3-(1-Aminoethyl)-1-pyrrolidinyl]-1-ethyl-6,8-difluoro-1,4-dihydro-4-oxoquinoline-3-carboxylic acid] | ≤ 0.05 | 0.10 | ≤ 0.05 | ≤ 0.05 | ≤ 0.05 | ≤ 0.05 | 0.39 | 0.78 | 0.05 | 0.10 | 0.20 | ≤ 0.05 | 0.20 | extremely strong anti-microbial activity | extremely strong anti-microbial activity | – |
